The data set in a line: In vitro phase I metabolic stability in male SD rat hepatic microsomes. Format: in vitro ADME. Particulars: for Peak area ratio (test compound/testosterone-D3 (internal standard)), mean value: mean of triplicate; for Peak area ratio (test compound/testosterone-D3 (internal standard)): single replicates -1, -2, -3. As for the experimental part: Phase I metabolic stability kit (purchased from HUIZHI HEYUAN BIOTECHNOLOGY (BEIJING) CO., LTD), with the following components of the product:
Positive substrate testosterone solution (10 mM): diluted with acetonitrile to prepare a 200 μM solution for later use; stop solution & internal standard (testosterone-D3): dissolved with acetonitrile to prepare a 5 ng/mL solution for later use.
• 1) all components of the kit were thawed in an ice bath and placed on ice for later use; • 2) an incubation system (taking 200 μL system as an example) was prepared:
• 3) 160 μL of pre-incubation solution B was added into the centrifuge tube containing 40 μL of pre-incubation solution A, uniform mixing was performed by pipetting three times, and the resulting mixture was immediately placed in a water bath at 37° C. for incubation and timing was started; • 4) at predetermined incubation time points (0, 5, 10, 15, 30, 45, 60 minutes), the incubation solution was quantitatively taken out, and 200 μL of stop solution (5 ng/mL testosterone-D3 in acetonitrile, pre-chilled at 4° C.) was added to terminate the reaction (stop solution volume: incubation system volume=1:1). Experimental samples were prepared in triplicate at each time point.
To verify the validity of the experiment, a positive control group was established concurrently in the whole experiment to evaluate whether the incubation system functioned properly, with the preparation method as follows: the compound to be tested was replaced with the positive substrate testosterone (200 μM in acetonitrile) from the phase I metabolic stability kit, and the other components of the incubation system and experimental method were the same as those of the experimental group.
The ratio of the chromatographic peak area of the compound to be tested to the chromatographic peak area of the testosterone-D3 (internal standard) was used as the calculated data. By taking the peak area ratio at time zero of the test compound as 100%, the remaining percentages were calculated by comparing the peak area ratio at each time point with the peak area ratio at time zero, and the natural logarithms of the remaining percentages of the substrate at each time point are then subjected to linear regression against the incubation times to obtain the slope k. Therefore, the in vitro metabolic half-life (T1/2) and intrinsic clearance (CLint) were calculated using the following formulas: […]

Values joined by “and” are separate entries in the source; they are usually repeats but may differ in a detail not shown here. Equal values may be shown once.

`C[C@]12CC[C@H]3[C@@H](CCC4=CC(=O)CC[C@@]43C)[C@@H]1CC[C@@H]2O` [Positive control, testosterone]: the “Peak area ratio (test compound/testosterone-D3 (internal standard)), mean value” (incubation time 0 min) is listed as 20.01 and the “Peak area ratio (test compound/testosterone-D3 (internal standard)), mean value” (incubation time 10 min) came out at 0.06. Besides, the “Peak area ratio (test compound/testosterone-D3 (internal standard))” value was 20.12 and 19.58 and 20.33 (incubation time 0 min); 0.05 and 0.08 and 0.06 (incubation time 10 min).

The values above are taken from US20260109731A1, “NE[…] USE THEREOF” (HUNAN MINGRUI PHARMACEUTICAL CO., LTD., priority 2023, published 2026).
